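Exposure lasted 48 hours, with cells grown in 96-well plates and compounds tested at five concentrations. TGI: concentration producing complete growth inhibition.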
Columns and labels:
Experiment in all cases: inhibition of tumour cell growth, NCI panel, 48 h
[1] = tested on: SNB-78 CNS
[2] = tested on: OVCAR-8 ovarian
[3] = tested on: COLO 205 colon
[4] = tested on: UACC-62 melanoma
[5] = tested on: OVCAR-4 ovarian
[6] = tested on: K-562 leukemia
[7] = tested on: SF-295 CNS
[8] = tested on: CAKI-1 renal
[9] = tested on: SW-620 colon
[10] = tested on: HCC-2998 colon
[11] = tested on: SK-OV-3 ovarian
[12] = tested on: LOX IMVI melanoma
[13] = tested on: NCI-H23 lung
[14] = tested on: ACHN renal
[15] = tested on: HOP-62 NSCLC
[16] = tested on: UO-31 renal
[17] = tested on: HCT-116 colon
[18] = tested on: A549 NSCLC
[19] = tested on: DLD-1 colon
[20] = tested on: EKVX NSCLC
[21] = tested on: MOLT-4 leukemia
[22] = tested on: SF-268 CNS
[23] = tested on: HT29 colon
[24] = tested on: OVCAR-3 ovarian
[25] = tested on: SK-MEL-2 melanoma
[26] = tested on: IGROV1 ovarian
[27] = tested on: LXFL 529 NSCLC
[28] = tested on: SF-539 CNS
[29] = tested on: HCT-15 colon
[30] = tested on: SK-MEL-5 melanoma
[31] = tested on: KM20L2 colon
[32] = tested on: SN12C renal
[33] = tested on: KM12 colon
[34] = tested on: 786-0 renal
[35] = tested on: XF 498 CNS
[36] = tested on: TK-10 renal
[37] = tested on: DMS 114 small cell lung
[38] = tested on: MALME-3M melanoma
[39] = tested on: DMS 273 small cell lung
[40] = tested on: SNB-75 CNS
[41] = tested on: CCRF-CEM leukemia
[42] = tested on: SNB-19 CNS
[43] = tested on: M19-MEL melanoma
[44] = tested on: HL-60(TB) leukemia
[45] = tested on: UACC-257 melanoma
[46] = tested on: NCI-H460 lung
[47] = tested on: OVCAR-5 ovarian
[48] = tested on: HOP-92 NSCLC
[49] = tested on: RXF-631 renal
[50] = tested on: RPMI-8226 leukemia
[51] = tested on: M14 melanoma
[52] = tested on: RXF 393 renal
[53] = tested on: U251 CNS
[54] = tested on: A498 renal
[55] = tested on: SR leukemia
[56] = tested on: NCI-H522 lung
[57] = tested on: NCI-H226 lung
[58] = tested on: HOP-18 NSCLC
[59] = tested on: SK-MEL-28 melanoma
[60] = tested on: MDA-N
[61] = tested on: NCI/ADR-RES ovarian
[62] = tested on: DU-145 prostate
[63] = tested on: MDA-MB-435
[64] = tested on: HS 578T breast
[65] = tested on: T-47D breast
[66] = tested on: BT-549 breast
[67] = tested on: MCF7 breast
[68] = tested on: MDA-MB-231 breast
[69] = tested on: PC-3 prostate

Compound: COC(=O)/C=C1\CCC(C)O1 (centres undefined)
- TGI [1]: > 100 µM
- TGI [2]: > 100 µM
- TGI [3]: > 100 µM
- TGI [4]: > 100 µM
- TGI [5]: > 100 µM
- TGI [6]: > 100 µM
- TGI [7]: > 100 µM
- TGI [8]: > 100 µM
- TGI [9]: > 100 µM
- TGI [10]: > 100 µM
- TGI [11]: > 100 µM
- TGI [12]: > 100 µM
- TGI [13]: > 100 µM
- TGI [14]: > 100 µM
- TGI [15]: > 100 µM
- TGI [16]: > 100 µM
- TGI [17]: > 100 µM
- TGI [18]: > 100 µM
- TGI [19]: > 100 µM
- TGI [20]: > 100 µM
- TGI [21]: > 100 µM
- TGI [22]: > 100 µM
- TGI [23]: > 100 µM
- TGI [24]: > 100 µM
- TGI [25]: > 100 µM
- TGI [26]: > 100 µM
- TGI [27]: > 100 µM
- TGI [28]: > 100 µM
- TGI [29]: > 100 µM
- TGI [30]: > 100 µM
- TGI [31]: > 100 µM
- TGI [32]: > 100 µM
- TGI [33]: > 100 µM
- TGI [34]: > 100 µM
- TGI [35]: > 100 µM
- TGI [36]: > 100 µM
- TGI [37]: > 100 µM
- TGI [38]: > 100 µM
- TGI [39]: > 100 µM
- TGI [40]: 94 µM
- TGI [41]: > 100 µM
- TGI [42]: > 100 µM
- TGI [43]: > 100 µM
- TGI [44]: > 100 µM
- TGI [45]: > 100 µM
- TGI [46]: > 100 µM
- TGI [47]: > 100 µM
- TGI [48]: > 100 µM
- TGI [49]: > 100 µM
- TGI [50]: > 100 µM
- TGI [51]: > 100 µM
- TGI [52]: > 100 µM
- TGI [53]: > 100 µM

Compound: CC1COC(C)(C)P(=O)(c2ccccc2)C1 (centres undefined)
- TGI [1]: > 100 µM
- TGI [2]: > 100 µM
- TGI [3]: > 100 µM
- TGI [4]: > 100 µM
- TGI [6]: > 100 µM
- TGI [7]: > 100 µM
- TGI [9]: > 100 µM
- TGI [10]: > 100 µM
- TGI [11]: > 100 µM
- TGI [12]: > 100 µM
- TGI [13]: > 100 µM
- TGI [14]: > 100 µM
- TGI [15]: > 100 µM
- TGI [16]: > 100 µM
- TGI [17]: > 100 µM
- TGI [18]: > 100 µM
- TGI [54]: > 100 µM
- TGI [19]: > 100 µM
- TGI [20]: > 100 µM
- TGI [55]: > 100000 nM
- TGI [21]: > 100 µM
- TGI [23]: > 100 µM
- TGI [24]: > 100 µM
- TGI [25]: > 100 µM
- TGI [26]: > 100 µM
- TGI [27]: > 100 µM
- TGI [28]: > 100 µM
- TGI [29]: > 100 µM
- TGI [30]: > 100 µM
- TGI [31]: > 100 µM
- TGI [32]: > 100 µM
- TGI [33]: > 100 µM
- TGI [34]: > 100 µM
- TGI [35]: > 100 µM
- TGI [36]: > 100 µM
- TGI [37]: > 100 µM
- TGI [38]: > 100 µM
- TGI [56]: > 100 µM
- TGI [39]: > 100 µM
- TGI [57]: > 100 µM
- TGI [40]: > 100 µM
- TGI [41]: > 100 µM
- TGI [42]: > 100 µM
- TGI [43]: > 100 µM
- TGI [44]: > 100 µM
- TGI [45]: > 100 µM
- TGI [46]: > 100 µM
- TGI [47]: > 100 µM
- TGI [58]: > 100 µM
- TGI [50]: > 100 µM
- TGI [51]: > 100 µM
- TGI [52]: > 100 µM
- TGI [53]: > 100 µM
- TGI [59]: > 100 µM

Compound: Cc1ccc(S(=O)(=O)c2ccc(N)cc2)cc1
- TGI [1]: > 100 µM
- TGI [2]: > 100 µM
- TGI [4]: > 100 µM
- TGI [5]: > 100 µM
- TGI [6]: > 100 µM
- TGI [7]: > 100 µM
- TGI [8]: > 100 µM
- TGI [9]: > 100 µM
- TGI [10]: > 100 µM
- TGI [11]: > 100 µM
- TGI [13]: > 100 µM
- TGI [14]: > 100 µM
- TGI [15]: > 100 µM
- TGI [16]: > 100 µM
- TGI [17]: > 100 µM
- TGI [18]: > 100 µM
- TGI [54]: > 100 µM
- TGI [19]: > 100 µM
- TGI [20]: > 100 µM
- TGI [21]: > 100 µM
- TGI [23]: > 100 µM
- TGI [24]: > 100 µM
- TGI [25]: > 100 µM
- TGI [26]: > 100 µM
- TGI [27]: > 100 µM
- TGI [28]: > 100 µM
- TGI [29]: > 100 µM
- TGI [30]: > 100 µM
- TGI [31]: > 100 µM
- TGI [33]: > 100 µM
- TGI [34]: > 100 µM
- TGI [35]: > 100 µM
- TGI [36]: > 100 µM
- TGI [38]: > 100 µM
- TGI [39]: > 100 µM
- TGI [40]: > 100 µM
- TGI [41]: > 100 µM
- TGI [43]: > 100 µM
- TGI [44]: > 100 µM
- TGI [45]: > 100 µM
- TGI [46]: > 100 µM
- TGI [47]: > 100 µM
- TGI [49]: > 100 µM
- TGI [50]: > 100 µM
- TGI [51]: > 100 µM
- TGI [52]: > 100 µM
- TGI [53]: > 100 µM
- TGI [59]: > 100 µM

Compound: O=C1C=CC(=O)c2c1ccc1c3ccccc3n(-c3cccc([N+](=O)[O-])c3)c21
- TGI [2]: > 8.25 µM
- TGI [3]: 3.21 µM
- TGI [4]: > 3.16 µM
- TGI [5]: > 5.95 µM
- TGI [6]: 1.45 µM
- TGI [7]: > 10 µM
- TGI [8]: 5.48 µM
- TGI [9]: 2.79 µM
- TGI [10]: > 10 µM
- TGI [11]: > 10 µM
- TGI [60]: 4.82 µM
- TGI [12]: > 10 µM
- TGI [13]: 6.57 µM
- TGI [61]: > 10 µM
- TGI [14]: 3.36 µM
- TGI [15]: > 10 µM
- TGI [16]: > 10 µM
- TGI [17]: 3.91 µM
- TGI [62]: > 10 µM
- TGI [18]: > 10 µM
- TGI [54]: > 10 µM
- TGI [20]: > 9.51 µM
- TGI [55]: 961 nM
- TGI [21]: 1.07 µM
- TGI [22]: > 10 µM
- TGI [23]: > 10 µM
- TGI [24]: 4.57 µM
- TGI [25]: > 10 µM
- TGI [26]: > 10 µM
- TGI [28]: > 6.82 µM
- TGI [29]: 7.09 µM
- TGI [30]: > 10 µM
- TGI [32]: > 10 µM
- TGI [33]: > 10 µM
- TGI [34]: 3.58 µM
- TGI [36]: 4.47 µM
- TGI [38]: 4 µM
- TGI [63]: 4.37 µM
- TGI [64]: > 10 µM
- TGI [56]: 3.57 µM
- TGI [57]: > 10 µM
- TGI [40]: > 10 µM
- TGI [41]: 0.82 µM
- TGI [65]: 5.67 µM
- TGI [42]: > 10 µM
- TGI [44]: 1.29 µM
- TGI [45]: 7.38 µM
- TGI [46]: > 10 µM
- TGI [47]: > 10 µM
- TGI [48]: 4.05 µM
- TGI [50]: 3.9 µM
- TGI [51]: 3.86 µM
- TGI [52]: 4.48 µM
- TGI [66]: 3.31 µM
- TGI [67]: > 5.93 µM
- TGI [68]: 5.81 µM
- TGI [69]: > 10 µM
- TGI [53]: > 10 µM
- TGI [59]: > 6.36 µM

From PubChem BioAssay (NCI)
